Biological target: T1, Thymidine kinase (Human herpesvirus 1 (strain SC16) (HHV-1) (Human herpes simplex virus1), UniProt P06479)
T1 sequence (P06479 whole entry): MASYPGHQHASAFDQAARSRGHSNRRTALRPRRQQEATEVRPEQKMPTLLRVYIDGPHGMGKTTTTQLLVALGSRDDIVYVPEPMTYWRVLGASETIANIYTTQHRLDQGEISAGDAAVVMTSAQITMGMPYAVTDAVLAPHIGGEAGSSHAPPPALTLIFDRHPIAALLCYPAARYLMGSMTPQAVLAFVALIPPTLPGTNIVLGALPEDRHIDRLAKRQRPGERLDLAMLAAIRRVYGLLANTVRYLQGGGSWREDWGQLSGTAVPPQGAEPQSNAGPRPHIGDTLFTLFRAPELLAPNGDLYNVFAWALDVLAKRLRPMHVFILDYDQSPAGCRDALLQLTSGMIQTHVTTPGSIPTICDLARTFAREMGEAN
Assay: Binding affinity towards HSV-1 thymidine kinase

SMILES	IC50 [µM]
O=c1[nH]c(=O)n([C@H]2C[C@H](O)[C@@H](CO)O2)cc1-c1ccc(Br)s1	3.5
O=c1[nH]c(=O)n([C@H]2C[C@H](O)[C@@H](CO)O2)cc1-c1ccoc1	1.5
O=c1[nH]c(=O)n([C@H]2C[C@H](O)[C@@H](CO)O2)cc1-c1cccs1	2.4
Cc1ccc(-c2cn([C@H]3C[C@H](O)[C@@H](CO)O3)c(=O)[nH]c2=O)s1	2.3
O=c1[nH]c(=O)n([C@H]2C[C@H](O)[C@@H](CO)O2)cc1-c1ccno1	36
O=c1[nH]c(=O)n([C@H]2C[C@H](O)[C@@H](CO)O2)cc1-c1ccsc1	4
O=c1[nH]c(=O)n([C@H]2C[C@H](O)[C@@H](CO)O2)cc1-c1ccc(Cl)s1	2.3
O=c1[nH]c(=O)n([C@H]2C[C@H](O)[C@@H](CO)O2)cc1-c1ccc(Cl)o1	28
O=c1[nH]c(=O)n([C@H]2C[C@H](O)[C@@H](CO)O2)cc1-c1ccc(Br)o1	51
O=c1[nH]c(=O)n([C@H]2C[C@H](O)[C@@H](CO)O2)cc1-c1ccco1	2.9
O=c1[nH]c(=O)n([C@H]2C[C@H](O)[C@@H](CO)O2)cc1-c1cc(Br)no1	34
O=c1[nH]c(=O)n([C@H]2C[C@H](O)[C@@H](CO)O2)cc1-c1cscc1Br	143
O=c1[nH]c(=O)n([C@H]2C[C@H](O)[C@@H](CO)O2)cc1-c1sc(Br)cc1Br	62
O=c1[nH]c(=O)n([C@H]2C[C@H](O)[C@@H](CO)O2)cc1-c1ccccc1	102
O=c1[nH]c(=O)n([C@H]2C[C@H](O)[C@@H](CO)O2)cc1-c1sccc1Br	61
O=c1[nH]c(=O)n([C@H]2C[C@H](O)[C@@H](CO)O2)cc1-c1ccns1	3.1

Source: ChEMBL document CHEMBL1129029, “Understanding the binding of 5-substituted 2'-deoxyuridine substrates to thymidine kinase of herpes simplex virus type-1” (J Med Chem, 1996)
